This experiment deals with human NaV 1.8 channels stably expressed in HEK 293 cells (Homo sapiens (Human), UniProt Q9Y5Y9). The experiment can be described thus: Nav1.8 Qube automated patch-clamp assay. Particulars: human NaV1.8 in HEK 293 cells, whole-cell voltage clamp, room temperature; read-out: IC50 values (nM) for Examples in the Nav1.8 Qube Assay. The class given is cell-based. How it is done:
Compounds were tested on human NaV 1.8 and NaV1.5 channels stably expressed in human embryo kidney (HEK) 293 cells. Sodium current measurements on Qube® were conducted as follows: automated 384-well patch-clamp assays on the Qube® platform (Sophion Biosciences) were used to measure the inhibition of sodium flow through human NaV1.8 and NaV1.5 channels. Whole-cell voltage-clamp recordings were performed in QChips® (Sophion Biosciences) at room temperature. NaV1.8 current measurements on Qube® were obtained as follows: NaV1.8 currents were elicited with a 10 second 1 Hertz (Hz) pulse train from a holding potential of −90 millivolts (mV), delivered to the cells once per minute in the control condition (DMSO only) and after compound addition. The 1 hertz pulse train stimulation consisted of ten test pulses to 10 millivolt (mV) for 20 milliseconds (ms), each of which was followed by a 980 millisecond repolarization to −67 millivolts. At the end of the 10 second pulse train stimulation, a 5 second hyperpolarization step to −100 millivolt (mV) was used to recover NaV1.8 from fast inactivation. The peak currents elicited by the 1st and 10th test pulses were used to determine IC50 values for resting inhibition and inactivated state inhibition. NaV1.5 current measurements on Qube® were obtained as follows: NaV1.5 currents were elicited with a 20 second 3 Hertz pulse train in the control condition (DMSO only) and after compound addition. The pulse train consisted of sixty 20 millisecond test pulses to 0 millivolt from a holding potential of −80 millivolt (mV). The average peak currents elicited by the last 3 test pulses were used to determine IC50 values for NaV1.5 inhibition.
The following buffers were used for the Qube® recordings: External buffer for NaV1.8 Qube® recording: 150 NaCl, 2 CaCl2, 5 KCl, 1 MgCl2, 10 HEPES, 12 Dextrose; External buffer for Qube® NaV1.5 recording: 120 N-Methyl-D-Glucamine, 40 NaCl, 1 KCl, 2.7 CaCl2), 5 HEPES, 0.5 MgCl2; and Internal buffer for Qube® recording: 120 CsF, 30 CsCl, 10 EGTA, 5 HEPES, 5 NaF, 2 MgCl2.
For all Qube® experiments offline analysis was used to determine percent inhibition as a function of drug concentration. IC50 values were determined by fitting to the Hill equation.

human NaV 1.8 channels stably expressed in HEK 293 cells, sequence (Q9Y5Y9 whole entry): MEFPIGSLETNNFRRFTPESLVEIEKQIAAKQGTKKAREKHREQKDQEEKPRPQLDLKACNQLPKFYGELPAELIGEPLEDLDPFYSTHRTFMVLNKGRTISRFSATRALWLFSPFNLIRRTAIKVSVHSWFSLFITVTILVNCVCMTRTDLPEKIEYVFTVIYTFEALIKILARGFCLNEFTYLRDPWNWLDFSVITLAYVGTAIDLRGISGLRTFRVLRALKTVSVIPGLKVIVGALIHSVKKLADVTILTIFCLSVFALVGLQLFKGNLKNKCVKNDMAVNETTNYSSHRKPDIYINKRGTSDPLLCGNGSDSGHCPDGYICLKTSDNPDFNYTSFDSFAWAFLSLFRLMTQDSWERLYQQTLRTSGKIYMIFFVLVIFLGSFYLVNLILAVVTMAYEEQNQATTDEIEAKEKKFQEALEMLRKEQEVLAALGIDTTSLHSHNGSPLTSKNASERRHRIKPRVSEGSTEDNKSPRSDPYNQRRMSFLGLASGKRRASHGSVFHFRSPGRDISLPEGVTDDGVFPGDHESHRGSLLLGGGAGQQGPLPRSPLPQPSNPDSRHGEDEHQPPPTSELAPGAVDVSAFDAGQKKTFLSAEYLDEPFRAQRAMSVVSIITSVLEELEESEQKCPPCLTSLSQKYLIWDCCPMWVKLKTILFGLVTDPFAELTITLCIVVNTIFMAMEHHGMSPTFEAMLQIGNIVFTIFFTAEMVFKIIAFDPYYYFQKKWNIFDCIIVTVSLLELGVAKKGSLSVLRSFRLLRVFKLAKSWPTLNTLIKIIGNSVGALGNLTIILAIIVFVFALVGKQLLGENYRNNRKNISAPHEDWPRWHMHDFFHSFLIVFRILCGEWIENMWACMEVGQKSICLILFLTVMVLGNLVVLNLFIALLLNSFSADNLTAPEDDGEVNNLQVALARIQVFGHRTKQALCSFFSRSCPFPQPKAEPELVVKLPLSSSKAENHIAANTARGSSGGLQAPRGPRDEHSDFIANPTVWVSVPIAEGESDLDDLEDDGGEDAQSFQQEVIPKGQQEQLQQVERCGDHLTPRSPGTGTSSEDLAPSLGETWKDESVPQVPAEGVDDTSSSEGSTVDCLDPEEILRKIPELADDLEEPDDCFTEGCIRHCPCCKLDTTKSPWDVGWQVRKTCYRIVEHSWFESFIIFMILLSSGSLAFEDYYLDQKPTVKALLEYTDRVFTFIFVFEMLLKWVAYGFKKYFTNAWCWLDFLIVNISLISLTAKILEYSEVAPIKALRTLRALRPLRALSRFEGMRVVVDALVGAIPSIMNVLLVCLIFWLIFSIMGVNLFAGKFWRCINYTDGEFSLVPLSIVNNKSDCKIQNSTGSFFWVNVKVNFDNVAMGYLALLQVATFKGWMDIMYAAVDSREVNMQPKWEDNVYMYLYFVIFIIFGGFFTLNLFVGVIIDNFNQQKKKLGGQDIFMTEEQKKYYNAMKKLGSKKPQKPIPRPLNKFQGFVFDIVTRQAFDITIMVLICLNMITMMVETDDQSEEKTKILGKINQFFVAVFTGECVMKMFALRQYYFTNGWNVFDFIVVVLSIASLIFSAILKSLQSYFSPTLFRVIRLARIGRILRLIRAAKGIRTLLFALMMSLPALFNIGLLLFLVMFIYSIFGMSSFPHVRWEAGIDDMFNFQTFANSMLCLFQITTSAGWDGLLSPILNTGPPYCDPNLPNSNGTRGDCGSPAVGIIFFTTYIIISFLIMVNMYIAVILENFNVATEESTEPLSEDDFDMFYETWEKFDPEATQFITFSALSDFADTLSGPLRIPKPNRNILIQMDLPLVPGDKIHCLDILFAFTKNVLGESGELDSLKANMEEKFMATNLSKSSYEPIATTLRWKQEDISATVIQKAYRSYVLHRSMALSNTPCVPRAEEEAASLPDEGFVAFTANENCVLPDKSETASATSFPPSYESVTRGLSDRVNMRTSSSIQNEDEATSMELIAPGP

For `C[C@@H]1C(=O)NCCN1C(=O)NC(c1ccc(F)c(Cl)c1)c1cnn(CC(F)(F)F)c1` (single isomer, unassigned) [Example 67B, (2R)-N-((S or R)-(3-chloro-4-fluorophenyl)(1-(2,2,2-trifluoroethyl)-1H-pyrazol-4-yl)methyl)-2-methyl-3-oxopiperazine-1-carboxamide], the IC50 came to 42 nM.
With `C[C@@H]1C(=O)NCCN1C(=O)NC(c1ccc(OCC(F)(F)F)nc1)c1ccc(F)c(F)c1` (single isomer, unassigned) [Example 6A, (2R)-N-((R or S)-(3,4-difluorophenyl)(6-(2,2,2-trifluoro-ethoxy)pyridin-3-yl)methyl)-2-methyl-3-oxopiperazine-1-carboxamide], the IC50 worked out at 20 nM.
The figure for `C[C@@H]1C(=O)NCCN1C(=O)NC(c1ccc(OCC(F)(F)F)nc1)c1cc(F)c(F)c(Cl)c1` (single isomer, unassigned) [Example 7B, (2R)-N-((S or R)-(3-chloro-4,5-difluoro-phenyl)(6-(2,2,2-tri-fluoroethoxy)pyridin-3-yl)methyl)-2-methyl-3-oxo-piperazine-1-carboxamide] is 19.6 nM.
`C[C@@H]1C(=O)NCCN1C(=O)NC(c1ccc(OC(F)(F)F)nc1)c1ccc(F)c(Cl)c1F` (single isomer, unassigned) [Example 4A, (2R)-N-((R or S)-(3-chloro-2,4-difluorophenyl)(6-(trifluoromethoxy)pyridin-3-yl)methyl)-2-methyl-3-oxopiperazine-1-carboxamide]: the IC50 was 3.9 nM.
For `C[C@@H]1C(=O)NCCN1C(=O)NC(c1cnc(C(F)(F)F)nc1)c1ccc(F)c(Cl)c1F` (single isomer, unassigned) [Example 30A, (2R)-N-((R or S)-(3-chloro-2,4-difluoro-phenyl)(2-(trifluoro-methyl)pyrimidin-5-yl)methyl)-2-methyl-3-oxopiperazine-1-carboxamide], the IC50 worked out at 506 nM.
As to `O=C1NCCN(C(=O)NC(c2cnc(C(F)(F)F)nc2)c2ccc(F)c(Cl)c2F)C1C1CC1` (single isomer, unassigned) [Example 41A, N-((R or S)-(3-chloro-2,4-difluorophenyl)(2-(trifluoromethyl)pyrimidin-5-yl)methyl)-(R or S)-2-cyclopropyl-3-oxopiperazine-1-carboxamide], the IC50 is 2020 nM.
For the compound `C[C@@H]1C(=O)NCCN1C(=O)NC(c1ccc(F)c(F)c1)c1ccc(F)c(C(F)(F)F)n1` (single isomer, unassigned) [Example 49A, (2R)-N-((R or S)-(3,4-difluorophenyl)(5-fluoro-6-(trifluoro-methyl)pyridin-2-yl)methyl)-2-methyl-3-oxopiperazine-1-carboxamide], the IC50 was found to be 258 nM.
For the compound `O=C1CN(C(=O)NC(c2ccc(Cl)c(F)c2)c2ccc(F)c(C(F)(F)F)n2)CCN1` (single isomer, unassigned) [Example 54A, N-((R or S)-(4-chloro-3-fluorophenyl)(5-fluoro-6-(trifluoromethyl)pyridin-2-yl)methyl)-3-oxopiperazine-1-carboxamide], the IC50 came out at 285 nM.
Turning to `C[C@@H]1C(=O)NCCN1C(=O)NC(c1ccc(C(F)(F)F)nc1)c1ccc(Cl)c(Cl)c1F` (single isomer, unassigned) [Example 29A, (2R)-N-((R or S)-(3,4-dichloro-2-fluoro-phenyl)(6-(trifluoro-methyl)pyridin-3-yl)methyl)-2-methyl-3-oxopiperazine-1-carboxamide], the IC50 is 21.4 nM.
The figure for `C[C@@H]1C(=O)NCCN1C(=O)NC(c1cnc(C(F)(F)F)c(Cl)c1)c1ccc(Cl)c(C#N)c1` (single isomer, unassigned) [Example 23B, (2R)-N-((S or R)-(4-chloro-3-cyano-phenyl)(5-chloro-6-(trifluoromethyl)pyridin-3-yl)methyl)-2-methyl-3-oxopiperazine-1-carboxamide] is 6.06 nM; for `C[C@@H]1C(=O)NCCN1C(=O)NC(c1ccc(C(F)(F)F)nc1)c1ccc(F)c(OC(F)(F)F)c1` (single isomer, unassigned) [Example 19B, (2R)-N-((S or R)-(4-fluoro-3-(trifluoro-methoxy)phenyl)(6-(trifluoromethyl)pyridin-3-yl)methyl)-2-methyl-3-oxopiperazine-1-carboxamide] it is 72.6 nM.
Take `C[C@@H]1C(=O)NCCN1C(=O)NC(c1ccc(C#N)c(Cl)c1)c1cnc(C(F)(F)F)c(Cl)c1` (single isomer, unassigned) [Example 24A, (2R)-N-((R or S)-(3-chloro-4-cyano-phenyl)(5-chloro-6-(trifluoromethyl)pyridin-3-yl)methyl)-2-methyl-3-oxopiperazine-1-carboxamide]: the IC50 was found to be 22.3 nM.
Turning to `C[C@@H]1C(=O)NCCN1C(=O)NC(c1ccc(OC(F)(F)F)cc1)c1cnc(C(F)(F)F)c(Cl)c1` (single isomer, unassigned) [Example 20B, (2R)-N-((S or R)-(5-chloro-6-(trifluoro-methyl)pyridin-3-yl)(4-(trifluoromethoxy)phenyl)methyl)-2-methyl-3-oxopiperazine-1-carboxamide], the IC50 was 4 nM.
Take `C[C@@H]1C(=O)NCCN1C(=O)NC(c1ccc(OCC(F)(F)F)nc1)c1ccc(F)c(Cl)c1` (single isomer, unassigned) [Example 3B, (2R)-N-((S or R)-(3-chloro-4-fluorophenyl)(6-(2,2,2-trifluoro-ethoxy)pyridin-3-yl)methyl)-2-methyl-3-oxopiperazine-1-carboxamide]: the IC50 was 21.9 nM.
As to `C[C@@H]1C(=O)NCCN1C(=O)NC(c1ccc(OCC(F)(F)F)nc1)c1ccc(F)c(F)c1` (single isomer, unassigned) [Example 6B, (2R)-N-((S or R)-(3,4-difluorophenyl)(6-(2,2,2-trifluoro-ethoxy)pyridin-3-yl)methyl)-2-methyl-3-oxopiperazine-1-carboxamide], the IC50 was 128 nM.
In the case of `C[C@@H]1C(=O)NCCN1C(=O)NC(c1ccc(OC(F)(F)F)c(Cl)c1)c1cnn(C(F)(F)F)c1` (single isomer, unassigned) [Example 63B, (2R)-N-((S or R)-(3-chloro-4-(trifluoro-methoxy)phenyl)(1-(trifluoromethyl)-1H-pyrazol-4-yl)methyl)-2-methyl-3-oxopiperazine-1-carboxamide], the IC50 was determined as 13.5 nM.
As for `C[C@@H]1C(=O)NCCN1C(=O)NC(c1ccc(Cl)cc1)c1ccc(OCC(F)(F)F)nc1` (single isomer, unassigned) [Example 5A, (2R)-N-((R or S)-(4-chlorophenyl)(6-(2,2,2-trifluoro-ethoxy)pyridin-3-yl)methyl)-2-methyl-3-oxopiperazine-1-carboxamide], the IC50 was 17.6 nM.
Consider `C[C@@H]1C(=O)NCCN1C(=O)NC(c1ccc(OCC(F)(F)F)nc1)c1ccc(F)c(Cl)c1` (single isomer, unassigned) [Example 3A, (2R)-N-((R or S)-(3-chloro-4-fluorophenyl)(6-(2,2,2-trifluoro-ethoxy)pyridin-3-yl)methyl)-2-methyl-3-oxopiperazine-1-carboxamide], for which the IC50 is 2.22 nM.
For `C[C@@H]1C(=O)NCCN1C(=O)NC(c1ccc(OC(F)(F)F)c(F)c1)c1ccc(F)c(C(F)(F)F)n1` (single isomer, unassigned) [Example 56B, (2R)-N-((S or R)-(3-fluoro-4-(trifluoro-methoxy)phenyl)(5-fluoro-6-(trifluoro-methyl)pyridin-2-yl)methyl)-2-methyl-3-oxopiperazine-1-carboxamide], the IC50 came out at 1.31 nM.
For `C[C@@H]1C(=O)NCCN1C(=O)NC(c1ccc(F)c(Cl)c1)c1ccc(F)c(OCC(F)(F)F)n1` (single isomer, unassigned) [Example 70B], the IC50 is 6.87 nM.
For `C[C@@H]1C(=O)NCCN1C(=O)NC(c1cnc(OCC(F)(F)F)c(F)c1)c1ccc(F)c(C(F)(F)F)n1` (single isomer, unassigned) [Example 48A], the IC50 was found to be 4.78 nM.
Consider `O=C1NCCN(C(=O)NC(c2ccc(C(F)(F)F)nc2)c2ccc(F)c(Cl)c2F)C1C1CC1` (single isomer, unassigned) [Example 38B, N—((R or S)-(3-chloro-2,4-difluorophenyl)(6-(trifluoromethyl)pyridin-3-yl)methyl)-(S)-2-cyclopropyl-3-oxopiperazine-1-carboxamide], for which the IC50 was 2.22 nM.
